Measurements taken from publication PMC3772838, “Preclinical Development of a Novel Class of CXCR4 Antagonist Impairing Solid Tumors Growth and Metastases” (PLoS ONE, 2013).
Read-outs that look alike come from different tables or passages of the source. Bridges are numbered along the chain shown (N, C = ends). Where no end group is shown, it is not given here.

Assays:
CXCR3 = assay: Anti-CXCR3 antibody (clone 1C6/CXCR3) binding in CXCR3 overexpressing cells; set-up: species or system human; conditions: COLO205 cells; peptides 10 µM, CXCL11 100 nM, 30 min pre-incubation; Figure S3
Procedure: [The procedure below names another target; the source says it served here with some conditions changed.] (§1) CXCR4 binding was evaluated as previously described. Briefly 5×10^5 CCRF–CEM cells were pre-incubated with 10 µM peptides or AMD3100 in binding buffer (PBS 1× plus 0.2% BSA and 0.1% NaN3) for 30 minutes at 37°C, 5% CO2 and then labeled for 30 minutes with anti-CXCR4 PE-antibody (FAB170P, clone 12G5, R&D Systems, Minneapolis, MN, USA). The cells were analyzed by FACS Canto II cytofluorometer (Becton Dickinson Immunocytometry Systems, Mountain View, CA, USA).
(§2) Fluo-3AM and Pluronic acid were added to each sample to increase Fluo-3AM solubility and improve dye loading into the cells. (TIF) Click here for additional data file.

CXCR4 [1] = assay: Competition with 12G5 anti-CXCR4 antibody binding (flow cytometry); set-up: species or system human; conditions: CCRF-CEM cells, 10 µM peptide, 30 min pre-incubation at 37°C, PE-labelled 12G5, flow cytometry; at least three experiments
Procedure: as §1
(A) The amount of peptides or AMD3100 bound was assessed indirectly by flow cytometry using the PE-labelled anti-CXCR4 antibody (clone 12G5). Results are expressed as the percent antibody bound. (B) The Ca^2+ influx assay was performed using CCRF-CEM cells and Fluo-3 AM calcium indicator. CCRF-CEM cells were incubated 30 minutes at 37°C with Fluo-3 AM and 15 minutes with AMD3100 (10 µM)/peptides (10 µM) and then treated with CXCL12. Results are expressed as the percent of Fluo-3 AM fluorescence in presence of CXCL12 alone. Each peptide was tested in at least three different experiments. Double tailed T-Test was used for statistical analyses. Differences were considered significant at P<0.05 compared to control. Control (CTRL).

[2] = system: human cancer cell lines (SN12C, RXF393, A498 and PES43); assay: Cytotoxicity on human cancer cell lines; format: cell-based
CXCR4 [3] = assay: Mobilization of hematopoietic precursors and neutrophils; format: in vivo; conditions: DBA/2 mouse; for duration of mobilization effect compared to AMD3100: preliminary; for stem cell and neutrophil mobilization relative to AMD3100: preliminary evidence
Excerpt: The development of CXCR4 inhibitors is of increasing interest with AMD3100 (Plerixafor) having been approved by the FDA for stem cell mobilization, [39]. We evaluated peptides R, I and S for their ability to mobilize hematopoietic precursors in a DBA/2 mouse model in a CXCR4 dependent manner.

[4] = system: PES43 human melanoma cells; assay: CXCL12-dependent Transwell migration of PES43 cells; format: cell-based; conditions: 100 ng/mL CXCL12 in lower chamber, 16 h, tested 10 nM, 100 nM, 1 µM, 10 µM
Procedure: (§3) Migration was assayed in 24-well Transwell chambers (Corning Inc., Corning, NY) using inserts with an 8-µm pore membrane. Membranes were precoated with collagen (human collagen type I/III) and fibronectin (20 µg/mL each). […] After 16 h incubation, cells on the upper surface of the filter were removed using a cotton wool swab; migration of cells in migration media alone was compared with migration in media containing CXCL12. The cells were counted in ten different fields (original magnification ×40). The migration index was defined as the ratio between migrating cells in the experimental group and migrated cells in the control group. For the wound closure assay, tested cells were allowed to reach confluence in six-well plates containing serum-depleted growth medium and scratched with pipette tips to make wounds. The wound closure was observed microscopically 6 hours post-wounding (OKO Time Lapse).
Experiments were conducted using PES43 cells. (A) Migration was assayed in 24-well Transwell chambers using inserts with 8-µm pore membrane. […] Migrated cells on the lower surface were fixed, stained with H&E and counted microscopically. The results are expressed as the migration index relative to migration in presence of BSA alone. […] Images were acquired with OKO Time Lapse. […] PES43 cells were serum-starved and incubated with CXCL12 (100 ng/ml) alone or in presence of AMD3100/peptides. Each peptide was tested in at least three different experiments. Double tailed T-Test was used for statistical analyses. Differences were considered significant at P<0.05 compared to control.

CXCR7 = assay: Anti-CXCR7 antibody (clone 11G8) binding in CXCR7 overexpressing cells; set-up: species or system human; conditions: MCF-7 cells; peptides 10 µM, CXCL11 100 nM, 30 min pre-incubation; Figure S3
Procedure: [The procedure below names another target; the source says it served here with some conditions changed.] as §1, §2

[5] = system: SN12C-EGFP renal cancer cells; assay: SN12C-pEGFP subcutaneous xenograft tumor growth; format: in vivo, CD1 nude mice; conditions: IP 10 days, peptides 2 mg/kg, AMD3100 1.25 mg/kg; measured a week later by fluorescence stereomicroscope; control 65.97±35.1; average
Procedure: All mice were obtained from Harlan (Bar Harbor, ME, USA) and their care was in accord with institutional guidelines. Twenty-five 6-8-week-old female C57BL/6 mice were inoculated into the tail vein with 5×10^5 B16–CXCR4 cells pre-treated for 30 minutes with peptide S (10 µM), peptide R (10 µM), peptide I (10 µM), or AMD3100 (10 µM). Six hours later intraperitoneal (IP) treatment started with AMD3100 (1.25 mg/kg) or each peptide (2 mg/kg) in sterile PBS once a day for 10 days. A week later the mice were sacrificed. The experiment was repeated three times. The lung metastases assay was also conducted with K7M2 murine osteosarcoma cells. Twenty-five 6-8-week-old female Balb/c mice were injected via tail vein with 2.5×10^5 K7M2 cells pre-treated for 30 minutes with AMD3100 (10 µM), peptide S (10 µM), peptide R (10 µM), peptide I (10 µM) and animals were treated IP daily for 15 days with 2.5 mg/kg for AMD3100 group and 10 mg/kg for each peptide groups. A week later the mice were sacrificed. Xenograft tumor growth was evaluated using pEGFP-SN12C cells in exponential growth phase subcutaneously injected into the right flank of twenty-five 6-8-week-old female CD1 nude mice. 2×10^6 SN12C-pEGFP were injected in the right flank of each mouse and treated with AMD3100 (1.25 mg/kg) and peptides (2 mg/kg) for 10 days ip. A week later mice were euthanized and tumor volume evaluated through Leica MacroFluo fluorescence stereomicroscope (Leica microsystem, Houston, TX). The experiment was repeated three times. The Istituto Nazionale per lo Studio e la Cura dei Tumori, Fondazione Giovanni Pascale Independent Etical Comettee approved the study (CEI/600/12).
6 to 8-week-old female CD1 nude mice were injected subcutaneously with 2×10^6 pEGFP-SN12C cells pre-treated with 10 µM AMD3100 or 10 µM of each peptide. Beginning the following day mice were further treated intraperitoneally for 10 days with 1.25 mg/kg AMD3100 or 2 mg/kg of peptides R, I or S. A week later mice were euthanized and tumor volume evaluated directly from the flank of mice using a Leica MacroFluo fluorescence stereomicroscope (Leica microsystem, Houston, TX) (A). The experiments were repeated three times. B. SN12C-PEGFP cells migration toward CXCL12 in the presence of AMD3100 or Peptide R, S and I.

[6] = system: K7M2 murine osteosarcoma cells; assay: K7M2 in vitro migration; format: cell-based, mouse; conditions: Figure 4
Procedure: as §3

association of the 12G5-CXCR4 antibody to the receptor (CXCR4 [1]) | Substance | binding to CXCR3 (anti-CXCR3 antibody) (CXCR3) | cytotoxicity [2] | duration of mobilization effect compared to AMD3100 (CXCR4 [3]) | stem cell and neutrophil mobilization relative to AMD3100 (CXCR4 [3]) | concentration at which CXCL12-dependent migration was inhibited [4] [nM] | binding to CXCR7 (anti-CXCR7 antibody) (CXCR7) | tumor volume of SN12C-GFP xenograft [5] [mm^3] | K7M2 in vitro migration [6] | cytotoxicity ([2]; SN12C, RXF393, A498 and PES43, Figure S2)
17 % of control | Arg-Ala-[Cys-Arg-His-Trp-Cys] (RACRHWC; disulfide 3-7) [Peptide S, CXCL12-mimetic disulfide-cyclic peptide] | unaffected | no toxicity | more durable | as potent stem cell and neutrophil mobilization as does AMD3100 | ≤ 10 | unaffected | 44.51±26.4 | reduced | 
21 % of control | Arg-Ala-[Cys-Arg-Phe-Phe-Cys] (RACRFFC; disulfide 3-7) [Peptide R, CXCL12-mimetic disulfide-cyclic peptide] | unaffected | no toxicity | more durable | as potent stem cell and neutrophil mobilization as does AMD3100 | ≤ 10 | unaffected | 47.00±16.88 | reduced | 

Substance | association of the 12G5-CXCR4 antibody to the receptor (CXCR4 [1]) | binding to CXCR3 (anti-CXCR3 antibody) (CXCR3) | cytotoxicity [2] | duration of mobilization effect compared to AMD3100 (CXCR4 [3]) | stem cell and neutrophil mobilization relative to AMD3100 (CXCR4 [3]) | concentration at which CXCL12-dependent migration was inhibited [4] [nM] | binding to CXCR7 (anti-CXCR7 antibody) (CXCR7) | tumor volume of SN12C-GFP xenograft [5] [mm^3] | K7M2 in vitro migration [6] | cytotoxicity ([2]; SN12C, RXF393, A498 and PES43, Figure S2)
[Cys-Trp-His-Arg-Cys] (CWHRC; disulfide 1-5) [Peptide I, v-MIP-II mimetic disulfide-cyclic peptide] | 45 % of control | unaffected |  | more durable | as potent stem cell and neutrophil mobilization as does AMD3100 | ≤ 10 | unaffected | 39.19±25.8 | reduced | no toxicity
